{"source": "patent US20140087451A1", "about": "“ACOUSTIC WAVE (AW) SENSING DEVICES USING LIVE CELLS” (University of Massachusetts, priority 2010, published 2014)", "key": {"[1]": {"test_system": "Human Microvascular Endothelial Cells derived from Lung (HMVEC-L)", "test": "Surface acoustic wave (SAW) device, 21 MHz, frequency and attenuation response of attached cells", "type": "cell-based", "details": "for sensitivity (frequency shift normalized to operating frequency and number of live attached cells): SAW 21 MHz", "quoted_text": "An AT cut quartz wafer was prepared with electrodes for a surface acoustic wave (SAW) patterned on one side. The transmitting and receiving electrodes were composed of interdigitated (IDT) electrodes fabricated by lift off of gold deposited by electron beam evaporation. The IDTs were composed of 120 pairs of electrode fingers. This spacing corresponds to the wavelength of a SAW of 21 MHz. The sensing area between the IDTs was 20×8 mm. A 2 μm thick layer of poly(methylmethacrylate) (PMMA) was spin coated onto the surface of the SAW to serve as an insulating layer for the IDTs as well as a waveguide for the Love waves generated by the transmitting IDT.\nThe SAW was connected to an Agilent E5061B network analyzer, set up for transmission measurements (s12). Before liquid was added, the resonant frequency of 21 MHz was confirmed. Using Labview software, the resonant frequency and attenuation of the SAW was measured once per second during an experiment. A drop of cell media containing cells was placed in the sensing area allowing cells to attach, as described below.\nThe Human Microvascular Endothelial Cells derived from Lung (HMVEC-L) cell line was obtained from Lonza (Basel, Switzerland) and stock cultures were established and grown in media recommended by the manufacturers, at 37° C. in a humidity controlled incubator with 5% CO2, unless otherwise noted. The media used was EBM™-2, (CC-3156) (Lonza Basel, Switzerland) with EGM™-2-MV BulletKit™ (CC-3202) (Lonza Basel, Switzerland) containing hEGF, Hydrocortisone, GA-1000 (Gentamicin, Amphotericin-B), VEGE, hFGF-B, R3-IGF-1 and 5% FBS. The HMVEC-L cells were grown in 25 cm^2 rectangular canted neck cell culture flasks with vented caps (Corning Life Science, Lowell, Mass.), and re-fed every three days and passaged once a week using a 0.05% solution of trypsin:EGTA (Invitrogen, Carlsbad, Calif.) as stock cultures.\nTwo different treatments of the cells on the SAW device were carried out in separate experiments. […] All the solutions were stored at 4° C. in a refrigerator. Prior to cell plating onto the SAW device, the SAW device was cleaned by rinsing with distilled water and then UV sterilized for 30 min. After sterilization and further washing with water and Phosphate Buffered Saline (PBS), 50 μl of medium containing 20,000 HMVEC-L cells was added to the sensing area of the SAW device, which had been previously placed within a 150 mm diameter Petri dish. Smaller Petri dishes filled with reservoirs of media were placed around the central SAW device, in order to provide additional surface area for evaporation of water. The purpose of this arrangement, large volume and area reservoirs of iso-osmotic pressure media in the Petri dishes, was to prevent evaporative loss of water from the small volume of media covering the cells in the sensing area of the SAW device. The SAW device in the large covered Petri dish was located on the bench top in ambient air. The Petri dish cover was removed and cells were plated in media onto the sensing area surface of the SAW device and the HMVEC-L cells in the covered Petri dish were allowed to attach to the sensing area SAW device surface for 18 hr. Then, the media was changed with 50 μl fresh medium."}, "[2]": {"test_system": "HMVEC-L cells", "test": "Commercial quartz crystal microbalance (QCM), 10 MHz fundamental frequency, equivalent prior experiments", "type": "cell-based, human"}, "[3]": {"test_system": "Human Mammary Epithelial Cells (HMECs)", "test": "QCM (10 MHz) fundamental and third overtone frequency shift with attached cells treated with growth factor", "type": "cell-based", "details": "bFGF 12.5 ng/ml final; 20,000 HMEC cells on 10 MHz QCM; 300 min after addition; FIG. 6", "description": "An AT cut 0.538″ diameter quartz disk with 100 nm thick gold electrodes was used for the piezoelectric medium in this experiment. A polydimethylsiloxane (PDMS) tube with an outer diameter of 0.4″ and an inner diameter of 0.3″ and 0.3″ high was attached to one side of the quartz disk for use as a reservoir for cell media. The quartz crystal was mounted in a HC35/U holder with silver epoxy bonding between the electrodes and the gold electrodes on the crystal.\nThe oscillator circuitry is a Colpitts oscillator, shown in FIG. 7, modified to enable the quartz to undergo shear wave oscillations under a liquid load. The thickness of the crystal is such that an unloaded crystal oscillating in air would operate at 10 MHz. The Colpitts oscillator was tuned to only amplify frequencies in the range of 10 MHz. A second class C amplifier operating as a frequency multiplier was connected to the ungrounded electrode of the quartz crystal. The multiplier was tuned to capture the crystal's third harmonic oscillations. The output of the multiplier and the voltage at the crystal were connected to the inputs of a two channel oscilloscope. The waveforms were digitally captured using Labview software and passed through a fast Fourier transform. The frequency of the signals were captured and recorded at one minute intervals, prior to and following addition of cells to the crystal surface. […]"}, "[4]": {"test_system": "HMECs", "details": "bFGF added to HMECs; cited from earlier work"}, "[5]": {"test_system": "its specific growth factor receptor", "details": "stated as 'has been shown'; cited from earlier work"}}, "data": [{"compound": "trypsin", "values": [{"measurement": "abrupt increase in frequency", "setting": "[1]; 0.05% trypsin:EGTA, cell release, 20,000 HMVEC-L cells on SAW sensing area, FIG. 12", "value": "about 60 kHz"}, {"measurement": "sensitivity (frequency shift normalized to operating frequency and number of live attached cells)", "setting": "[1]; Trypsin enzymatic removal experiment", "value": "3.75×10^−7 /cell"}, {"measurement": "equivalent sensitivity", "setting": "[2]; trypsinization experiment", "value": "1×10^−8 /cell"}]}, {"compound": "[N-]=[N+]=[N-]", "note": "[sodium azide, Sodium azide]", "values": [{"measurement": "change in Attenuation values", "setting": "[1]; 50 mM sodium azide final, 20,000 HMVEC-L cells on SAW device, FIG. 11", "value": "approximately 8 dBm"}, {"measurement": "increase in frequency", "setting": "[1]; 50 mM sodium azide final, 20,000 HMVEC-L cells on SAW sensing area, 4 hr after addition, FIG. 11", "value": "about 17 kHz"}, {"measurement": "sensitivity (frequency shift normalized to operating frequency and number of live attached cells)", "setting": "[1]; 50 mM sodium azide experiment", "value": "5.6×10^−8 /cell"}, {"measurement": "equivalent sensitivity", "setting": "[2]; 50 mM azide experiment", "value": "4.1×10^−9 /cell"}]}, {"compound": "bFGF: Basic human Fibroblast Growth Factor from Sigma, reconstituted in 50 mM Tris-HCl pH7.5", "values": [{"measurement": "frequency shift of third overtone compared to the fundamental in response to the growth factor", "setting": "[3]", "value": "larger frequency shift"}, {"measurement": "lag time of proliferative response (increase in thymidine incorporation)", "setting": "[4]", "value": "about 21 hr"}, {"measurement": "time to bind and activate its specific growth factor receptor", "setting": "[5]", "value": "≤ 8", "unit": "min"}]}]}
